Test results taken from ChEMBL document CHEMBL6153072, “Metabolically Stable Adenylation Inhibitors of Biotin Protein Ligase as Antibacterial Agents” (J Med Chem, 2025).

System: Staphylococcus aureus
Assay: Antimicrobial activity against methicillin-sensitive Staphylococcus aureus […] assessed as inhibition of microbial growth incubated for 14 days in biotin-deficient GAST medium by broth microdilution assay
Format: functional
Conditions: 336 h, time 14 day
Work on `Nc1ncnc2c1ncn2[C@@H]1O[C@H](CNS(=O)(=O)NCCCCC[C@@H]2SC[C@@H]3NC(=O)N[C@@H]32)[C@@H](O)[C@H]1O` yielded an MIC50 of 28.7 µM. Compound `CC(CCC[C@@H]1SC[C@@H]2NC(=O)N[C@@H]21)C(=O)[N-]S(=O)(=O)NC[C@H]1O[C@@H](n2cnc3c(N)ncnc32)[C@H](O)[C@@H]1O.[Na+]` (some centres undefined) has an MIC50 of 0.41 µM.

System: not listed separately
Assay: Cytotoxicity against African green monkey Vero cells
Format: toxicity, cell-based, Chlorocebus sabaeus
Conditions: not given
Work on `Nc1ncnc2c1ncn2[C@@H]1O[C@H](CNS(N)(=O)=O)[C@@H](O)[C@H]1O` yielded an IC50 of 6000 nM.

System: not listed separately
Assay: Clearance in female CD-1 mouse at 10 mg/kg, iv administered […] measured after 24 hrs by LC-MS/MS analysis
Format: ADME, organism-based
Conditions: in vivo
`CC(=O)NC[C@H]1CN(c2ccc(N3CCOCC3)c(F)c2)C(=O)O1` [LINEZOLID] gave a clearance of 16.3 mL/min/kg.

System: not listed separately
Assay: Drug metabolism in female CD-1 mouse assessed as AUC (0 to 24 hrs) of adenosine-5-sulfamide metabolite at 5 mg/kg, iv administered […] measured after 24 hrs by LC-MS/MS analysis
Format: ADME, organism-based
Conditions: in vivo
Work on `CC(CCC[C@@H]1SC[C@@H]2NC(=O)N[C@@H]21)C(=O)[N-]S(=O)(=O)NC[C@H]1O[C@@H](n2cnc3c(N)ncnc32)[C@H](O)[C@@H]1O.[Na+]` (some centres undefined) yielded an AUC of 29 ng·h/mL.

Target: T1, Biotin--[acetyl-CoA-carboxylase] ligase (Mycobacterium tuberculosis (strain ATCC 25618 / H37Rv), UniProt I6YFP0)
T1 sequence (I6YFP0 whole entry): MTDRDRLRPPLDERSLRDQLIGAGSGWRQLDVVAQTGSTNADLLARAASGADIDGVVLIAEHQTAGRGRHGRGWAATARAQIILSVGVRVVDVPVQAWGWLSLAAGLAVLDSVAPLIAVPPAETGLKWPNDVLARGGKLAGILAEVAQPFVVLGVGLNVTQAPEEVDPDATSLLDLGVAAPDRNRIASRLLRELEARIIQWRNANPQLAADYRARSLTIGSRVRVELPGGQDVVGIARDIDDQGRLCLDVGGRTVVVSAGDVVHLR
Assay: Binding affinity to Mycobacterium tuberculosis BPL assessed as dissociation constant by isothermal titration calorimetry
Conditions: not given
`Nc1ncnc2c1ncn2[C@@H]1O[C@H](CNS(=O)(=O)NCCCCC[C@@H]2SC[C@@H]3NC(=O)N[C@@H]32)[C@@H](O)[C@H]1O` gave a Kd of 23 nM. `CC(CCC[C@@H]1SC[C@@H]2NC(=O)N[C@@H]21)C(=O)[N-]S(=O)(=O)NC[C@H]1O[C@@H](n2cnc3c(N)ncnc32)[C@H](O)[C@@H]1O.[Na+]` (some centres undefined) gave a Kd of 22 nM.

System: Staphylococcus aureus
Assay: Antimicrobial activity against methicillin-resistant Staphylococcus aureus FPR3757 assessed as inhibition of microbial growth incubated for 14 days in biotin-deficient GAST medium by broth microdilution assay
Format: functional
Conditions: FPR3757, 336 h, time 14 day
In the case of `Nc1ncnc2c1ncn2[C@@H]1O[C@H](CNS(=O)(=O)NCCCCC[C@@H]2SC[C@@H]3NC(=O)N[C@@H]32)[C@@H](O)[C@H]1O`, the MIC50 is reported as 14.4 µM. In the case of `CC(CCC[C@@H]1SC[C@@H]2NC(=O)N[C@@H]21)C(=O)[N-]S(=O)(=O)NC[C@H]1O[C@@H](n2cnc3c(N)ncnc32)[C@H](O)[C@@H]1O.[Na+]` (some centres undefined), the MIC50 is reported as 0.2 µM.

System: not listed separately
Assay: Volume of distribution in female CD-1 mouse at 10 mg/kg, iv administered […] measured after 24 hrs by LC-MS/MS analysis
Format: ADME, organism-based
Conditions: in vivo
`CC(=O)NC[C@H]1CN(c2ccc(N3CCOCC3)c(F)c2)C(=O)O1` [LINEZOLID] showed a Vd of 0.63 L/kg.

System: not listed separately
Assay: AUC (0 to 24 hrs) in female CD-1 mouse at 5 mg/kg, iv administered […] measured after 24 hrs by LC-MS/MS analysis
Format: ADME, organism-based
Conditions: in vivo
Work on `CC(CCC[C@@H]1SC[C@@H]2NC(=O)N[C@@H]21)C(=O)[N-]S(=O)(=O)NC[C@H]1O[C@@H](n2cnc3c(N)ncnc32)[C@H](O)[C@@H]1O.[Na+]` (some centres undefined) yielded an AUC(0-t) at 24 h of 8640 ng·h/mL.

System: not listed separately
Assay: AUC (0 to 24 hrs) in female CD-1 mouse at 10 mg/kg, iv administered […] measured after 24 hrs by LC-MS/MS analysis
Format: ADME, organism-based
Conditions: in vivo
Work on `CC(=O)NC[C@H]1CN(c2ccc(N3CCOCC3)c(F)c2)C(=O)O1` [LINEZOLID] yielded an AUC(0-t) at 24 h of 11000 ng·h/mL.

Target: T2, Biotin--[acetyl-CoA-carboxylase] ligase (Mycobacterium tuberculosis (strain ATCC 25618 / H37Rv)) (UniProt I6YFP0)
T2 sequence (whole entry): T1 sequence (I6YFP0 whole entry)
Assay: Binding affinity to Mycobacterium tuberculosis BPL assessed as change in entropy by isothermal titration calorimetry
Conditions: not given
Compound `Nc1ncnc2c1ncn2[C@@H]1O[C@H](CNS(=O)(=O)NCCCCC[C@@H]2SC[C@@H]3NC(=O)N[C@@H]32)[C@@H](O)[C@H]1O` has a TdeltaS of 12.8 kcal/mol. With `CC(CCC[C@@H]1SC[C@@H]2NC(=O)N[C@@H]21)C(=O)[N-]S(=O)(=O)NC[C@H]1O[C@@H](n2cnc3c(N)ncnc32)[C@H](O)[C@@H]1O.[Na+]` (some centres undefined) the TdeltaS was 1.5 kcal/mol.

Target: T2, Biotin--[acetyl-CoA-carboxylase] ligase (Mycobacterium tuberculosis (strain ATCC 25618 / H37Rv))
Assay: Binding affinity to Mycobacterium tuberculosis BPL assessed as change in gibbs free energy by isothermal titration calorimetry
Conditions: not given
For `Nc1ncnc2c1ncn2[C@@H]1O[C@H](CNS(=O)(=O)NCCCCC[C@@H]2SC[C@@H]3NC(=O)N[C@@H]32)[C@@H](O)[C@H]1O`, the deltaG was -10.4 kcal/mol. With `CC(CCC[C@@H]1SC[C@@H]2NC(=O)N[C@@H]21)C(=O)[N-]S(=O)(=O)NC[C@H]1O[C@@H](n2cnc3c(N)ncnc32)[C@H](O)[C@@H]1O.[Na+]` (some centres undefined) the deltaG was -10.4 kcal/mol.

System: Mycobacterium tuberculosis
Assay: Antimicrobial activity against wild type Mycobacterium tuberculosis H37Rv assessed as inhibition of microbial growth incubated for 14 days in biotin-deficient GAST medium by broth microdilution assay
Format: functional
Conditions: 336 h, time 14 day
With `Nc1ncnc2c1ncn2[C@@H]1O[C@H](CNS(=O)(=O)NCCCCC[C@@H]2SC[C@@H]3NC(=O)N[C@@H]32)[C@@H](O)[C@H]1O` the MIC50 was > 100 µM. Work on `CC(CCC[C@@H]1SC[C@@H]2NC(=O)N[C@@H]21)C(=O)[N-]S(=O)(=O)NC[C@H]1O[C@@H](n2cnc3c(N)ncnc32)[C@H](O)[C@@H]1O.[Na+]` (some centres undefined) yielded an MIC50 of 50 µM.

System: not listed separately
Assay: Half life in female CD-1 mouse at 5 mg/kg, iv administered […] measured after 24 hrs by LC-MS/MS analysis
Format: ADME, organism-based
Conditions: in vivo
For `CC(CCC[C@@H]1SC[C@@H]2NC(=O)N[C@@H]21)C(=O)[N-]S(=O)(=O)NC[C@H]1O[C@@H](n2cnc3c(N)ncnc32)[C@H](O)[C@@H]1O.[Na+]` (some centres undefined), the half-life was 39 min.

System: not listed separately
Assay: Half life in female CD-1 mouse at 10 mg/kg, iv administered via gavage measured after 24 hrs by LC-MS/MS analysis
Conditions: in vivo
With `CC(=O)NC[C@H]1CN(c2ccc(N3CCOCC3)c(F)c2)C(=O)O1` [LINEZOLID] the half-life at 24 h was 33 min.

Target: T2, Biotin--[acetyl-CoA-carboxylase] ligase (Mycobacterium tuberculosis (strain ATCC 25618 / H37Rv))
Assay: Binding affinity to Mycobacterium tuberculosis BPL assessed as change in enthalpy by isothermal titration calorimetry
Conditions: not given
In the case of `Nc1ncnc2c1ncn2[C@@H]1O[C@H](CNS(=O)(=O)NCCCCC[C@@H]2SC[C@@H]3NC(=O)N[C@@H]32)[C@@H](O)[C@H]1O`, the deltaH is reported as -23.2 kcal/mol. In the case of `CC(CCC[C@@H]1SC[C@@H]2NC(=O)N[C@@H]21)C(=O)[N-]S(=O)(=O)NC[C@H]1O[C@@H](n2cnc3c(N)ncnc32)[C@H](O)[C@@H]1O.[Na+]` (some centres undefined), the deltaH is reported as -11.9 kcal/mol.

System: not listed separately
Assay: Clearance in female CD-1 mouse at 5 mg/kg, iv administered […] measured after 24 hrs by LC-MS/MS analysis
Format: ADME, organism-based
Conditions: in vivo
In the case of `CC(CCC[C@@H]1SC[C@@H]2NC(=O)N[C@@H]21)C(=O)[N-]S(=O)(=O)NC[C@H]1O[C@@H](n2cnc3c(N)ncnc32)[C@H](O)[C@@H]1O.[Na+]` (some centres undefined), the clearance is reported as 10 mL/min/kg.

System: not listed separately
Assay: Volume of distribution in female CD-1 mouse at 5 mg/kg, iv administered […] measured after 24 hrs by LC-MS/MS analysis
Format: ADME, organism-based
Conditions: in vivo
Compound `CC(CCC[C@@H]1SC[C@@H]2NC(=O)N[C@@H]21)C(=O)[N-]S(=O)(=O)NC[C@H]1O[C@@H](n2cnc3c(N)ncnc32)[C@H](O)[C@@H]1O.[Na+]` (some centres undefined) has a Vd of 0.54 L/kg.
